Assay results reported in ChEMBL document CHEMBL1154216, “Development of a novel expression, ZI MAX/K ZI, for determination of the counter-anion effect on the antimicrobial activity of tetrabutylammonium salts” (2009).

What follows are molecules tested on Escherichia coli (assay: Antimicrobial activity against Escherichia coli K-12 C600 assessed as ratio of maximum zone of inhibition to concentration required to reach half maximum zone of inhibition after 24 hrs).
Type: functional
For `CCCC[N+](CCCC)(CCCC)CCCC.Cc1ccc(S(=O)(=O)[O-])cc1`, the ZImax/KZI was 0 mm microL/micromol.
`CC(O)C(=O)[O-].CCCC[N+](CCCC)(CCCC)CCCC` was tested, and the ZImax/KZI was 0 mm microL/micromol.
Work on `CCCC[N+](CCCC)(CCCC)CCCC.O=[N+]([O-])[O-]` [BIS(TETRABUTYLAMMONIUM)MONONITRATE] yielded a ZImax/KZI of 0.333 mm microL/micromol.
With `Br.Br.CCCC[N+](CCCC)(CCCC)CCCC.[Br-]` [MONO(TETRABUTYLAMMONIUM)TRIBROMIDE] the ZImax/KZI was 37.59 mm microL/micromol.
`CC(=O)[O-].CCCC[N+](CCCC)(CCCC)CCCC` [TETRABUTYLAMMONIUM ACETATE] gave a ZImax/KZI of 4.2 mm microL/micromol.
`CCCC[N+](CCCC)(CCCC)CCCC.O=C([O-])c1ccccc1` [TETRABUTYLAMMONIUM BENZOATE] was tested, and the ZImax/KZI was 0.333 mm microL/micromol.
`CCCC[N+](CCCC)(CCCC)CCCC.[Br-]` [TETRABUTYLAMMONIUM BROMIDE] showed a ZImax/KZI of 0.516 mm microL/micromol.
For `CCCC[N+](CCCC)(CCCC)CCCC.O=P([O-])(O)O` [TETRABUTYLAMMONIUM DIHYDROGENPHOSPHATE], the ZImax/KZI was 0 mm microL/micromol.
`CCCC[N+](CCCC)(CCCC)CCCC.[F-]` [TETRABUTYLAMMONIUM FLUORIDE] gave a ZImax/KZI of 0.842 mm microL/micromol.
With `CCCC[N+](CCCC)(CCCC)CCCC.O=S(=O)([O-])O` [TETRABUTYLAMMONIUM HYDROGENSULFATE] the ZImax/KZI was 4.98 mm microL/micromol.
Molecule `CCCC[N+](CCCC)(CCCC)CCCC.[OH-]` [TETRABUTYLAMMONIUM HYDROXIDE] has a ZImax/KZI of 4.06 mm microL/micromol.
Work on `CCCC[N+](CCCC)(CCCC)CCCC.[I-]` [TETRABUTYLAMMONIUM IODIDE] yielded a ZImax/KZI of 0.381 mm microL/micromol.
`CCCC[N+](CCCC)(CCCC)CCCC.CS(=O)(=O)[O-]` [TETRABUTYLAMMONIUM METHANESULFONATE] showed a ZImax/KZI of 0.167 mm microL/micromol.
`CCCC[N+](CCCC)(CCCC)CCCC.[O-][Cl+3]([O-])([O-])[O-]` [TETRABUTYLAMMONIUM PERCHLORATE] showed a ZImax/KZI of 0 mm microL/micromol.
In the case of `CCCC[N+](CCCC)(CCCC)CCCC.O=P[O-]` [TETRABUTYLAMMONIUM PHOSPHENITE], the ZImax/KZI is reported as 0.408 mm microL/micromol.
With `CCCC[N+](CCCC)(CCCC)CCCC.F[B-](F)(F)F` [TETRABUTYLAMMONIUM TETRAFLUOROBORATE] the ZImax/KZI was 0.499 mm microL/micromol.
`CCCC[N+](CCCC)(CCCC)CCCC.N#C[S-]` [TETRABUTYLAMMONIUM THIOCYANATE] was tested, and the ZImax/KZI was 6.28 mm microL/micromol.
Work on `CCCC[N+](CCCC)(CCCC)CCCC.O=S(=O)([O-])C(F)(F)F` [TETRABUTYLAMMONIUM TRIFLUOROMETHANESULFONATE] yielded a ZImax/KZI of 0.067 mm microL/micromol.
`CCCC[N+](CCCC)(CCCC)CCCC.[Cl-]` [TETRABUTYLAMMONIUM] gave a ZImax/KZI of 0.382 mm microL/micromol.

What follows are molecules tested on Staphylococcus epidermidis.
Type: functional, ATCC 12228
Description: Antimicrobial activity against Staphylococcus epidermidis ATCC 12228 assessed as ratio of maximum zone of inhibition to concentration required to reach half maximum zone of inhibition after 24 hrs
Work on `CCCC[N+](CCCC)(CCCC)CCCC.Cc1ccc(S(=O)(=O)[O-])cc1` yielded a ZImax/KZI of 8.55 mm microL/micromol.
In the case of `CC(O)C(=O)[O-].CCCC[N+](CCCC)(CCCC)CCCC`, the ZImax/KZI is reported as 103.09 mm microL/micromol.
Work on `CCCC[N+](CCCC)(CCCC)CCCC.O=[N+]([O-])[O-]` [BIS(TETRABUTYLAMMONIUM)MONONITRATE] yielded a ZImax/KZI of 30.67 mm microL/micromol.
`Br.Br.CCCC[N+](CCCC)(CCCC)CCCC.[Br-]` [MONO(TETRABUTYLAMMONIUM)TRIBROMIDE] gave a ZImax/KZI of 48.08 mm microL/micromol.
`CC(=O)[O-].CCCC[N+](CCCC)(CCCC)CCCC` [TETRABUTYLAMMONIUM ACETATE] was tested, and the ZImax/KZI was 37.88 mm microL/micromol.
`CCCC[N+](CCCC)(CCCC)CCCC.O=C([O-])c1ccccc1` [TETRABUTYLAMMONIUM BENZOATE] was tested, and the ZImax/KZI was 39.81 mm microL/micromol.
`CCCC[N+](CCCC)(CCCC)CCCC.[Br-]` [TETRABUTYLAMMONIUM BROMIDE] gave a ZImax/KZI of 16.69 mm microL/micromol.
For `CCCC[N+](CCCC)(CCCC)CCCC.O=P([O-])(O)O` [TETRABUTYLAMMONIUM DIHYDROGENPHOSPHATE], the ZImax/KZI was 23.58 mm microL/micromol.
`CCCC[N+](CCCC)(CCCC)CCCC.[F-]` [TETRABUTYLAMMONIUM FLUORIDE] gave a ZImax/KZI of 15.82 mm microL/micromol.
`CCCC[N+](CCCC)(CCCC)CCCC.O=S(=O)([O-])O` [TETRABUTYLAMMONIUM HYDROGENSULFATE] was tested, and the ZImax/KZI was 84.03 mm microL/micromol.
In the case of `CCCC[N+](CCCC)(CCCC)CCCC.[OH-]` [TETRABUTYLAMMONIUM HYDROXIDE], the ZImax/KZI is reported as 27.17 mm microL/micromol.
For `CCCC[N+](CCCC)(CCCC)CCCC.[I-]` [TETRABUTYLAMMONIUM IODIDE], the ZImax/KZI was 140.85 mm microL/micromol.
With `CCCC[N+](CCCC)(CCCC)CCCC.CS(=O)(=O)[O-]` [TETRABUTYLAMMONIUM METHANESULFONATE] the ZImax/KZI was 23.53 mm microL/micromol.
`CCCC[N+](CCCC)(CCCC)CCCC.[O-][Cl+3]([O-])([O-])[O-]` [TETRABUTYLAMMONIUM PERCHLORATE] gave a ZImax/KZI of 14.77 mm microL/micromol.
`CCCC[N+](CCCC)(CCCC)CCCC.O=P[O-]` [TETRABUTYLAMMONIUM PHOSPHENITE] showed a ZImax/KZI of 52.08 mm microL/micromol.
`CCCC[N+](CCCC)(CCCC)CCCC.F[B-](F)(F)F` [TETRABUTYLAMMONIUM TETRAFLUOROBORATE] showed a ZImax/KZI of 25.71 mm microL/micromol.
`CCCC[N+](CCCC)(CCCC)CCCC.N#C[S-]` [TETRABUTYLAMMONIUM THIOCYANATE] was tested, and the ZImax/KZI was 11.59 mm microL/micromol.
For `CCCC[N+](CCCC)(CCCC)CCCC.O=S(=O)([O-])C(F)(F)F` [TETRABUTYLAMMONIUM TRIFLUOROMETHANESULFONATE], the ZImax/KZI was 64.94 mm microL/micromol.
`CCCC[N+](CCCC)(CCCC)CCCC.[Cl-]` [TETRABUTYLAMMONIUM] showed a ZImax/KZI of 23.58 mm microL/micromol.
